Values quoted from earlier work, collected in patent US20090241222A1, “TANDEM REAPEAT DNA CONSTRUCTS PRODUCING PROTEINS THAT ATTACK PLANT PATHOGENIC VIRUSES, FUNGI, AND BACTERIA BY DISRUPTING TRANSCRIPTION FACTORS ESSENTIAL FOR REPLICATION THEREOF IN PLANTS” (priority 2008, published 2009).

Test system: Magnaporthe grisea
Conditions: PA treated plants; cited from earlier work

In the case of O=C(O)c1ccccn1 [picolinic acid, 2-pyridine carboxylic acid], the “resistance against M. grisea” value is given as “enhanced”.
